# Measurements from paper PMC5668067, “Phase I dose-escalation study of the c-Met tyrosine kinase inhibitor SAR125844 in Asian patients with advanced solid tumors, including patients with MET-amplified gastric cancer” (Oncotarget, 2017).
# Entries after “also recorded” stand apart in the source; their conditions may differ.
# Legend:
# [1] = tested on: Asian patients with solid tumors; assay: phase I safety: treatment-emergent adverse events (NCI CTCAE v4.03), safety population; assay type: in vivo
# Experimental: (§1) SAR was administered by weekly intravenous infusion on days 1, 8, 15, and 22 of each 28–day cycle. The starting dose was 260 mg/m^2, and dose increments of 30% were made, to a maximum of 570 mg/m^2. Treatment continued until disease progression, unacceptable toxicity, or consent withdrawal. Patients were screened within 21 days before the first administration and followed for 30 days after the last administration.
# (§2) The safety population consisted of all patients exposed to SAR, regardless of the amount of treatment administered.
# [2] = tested on: Asian patients with solid tumors; assay: phase I dose escalation: dose-limiting toxicities, MTD and recommended dose; assay type: in vivo
# Experimental: This was an open-label, phase I, multicenter study consisting of a dose-escalation phase (to determine the MTD of SAR) and a dose-expansion phase (to evaluate the antitumor activity of SAR at the RD in patients with MET-amplified tumors, including gastric cancer).
# The model was run based on DLTs occurring during the first cycle of treatment.
# as §1
# A DLT was defined as grade 4 neutropenia for ≥ 7 consecutive days, febrile neutropenia, grade 4 thrombocytopenia or grade 3 thrombocytopenia with bleeding requiring a transfusion, any grade ≥ 3 nonhematologic event not easily managed or corrected by medical intervention, or SAR-related toxicity resulting in two or more missed doses.
# as §2
# [3] = dose-escalation cohort, 260 mg/m^2 (N = 6)
# [4] = dose-escalation cohort, 340 mg/m^2 (N = 4)
# [5] = dose-escalation cohort, 440 mg/m^2 (N = 3)
# [6] = dose-escalation cohort, 570 mg/m^2 (N = 6)
# [7] = dose-expansion cohort, All (N = 19)
# [8] = dose-expansion cohort, GC (N = 14)
structure (smiles),measurement,setting,value
O=C(NCCN1CCOCC1)Nc1nc2ccc(Sc3nnc4ccc(-c5ccc(F)cc5)nn34)cc2s1 [SAR125844],patients who discontinued treatment because of a TEAE,[1]; TEAE considered unrelated to the study drug,One
same,TEAE Abdominal pains,[1]; Total (N = 38),8 (21.1) n (%)
same,TEAE Back pain,[1]; Total (N = 38),5 (13.2) n (%)
same,TEAE Cancer pain,[1]; Total (N = 38),4 (10.5) n (%)
same,TEAE Constipation,[1]; Total (N = 38),8 (21.1) n (%)
same,TEAE Cough,[1]; Total (N = 38),4 (10.5) n (%)
same,TEAE Decreased appetite,[1]; Total (N = 38),11 (28.9) n (%)
same,TEAE Diarrhea,[1]; Total (N = 38),5 (13.2) n (%)
same,"TEAE Edema, peripheral",[1]; Total (N = 38),4 (10.5) n (%)
same,TEAE Fatigue/asthenia,[1]; Total (N = 38),8 (21.1) n (%)
same,TEAE Injection site reaction/phlebitis,[1]; Total (N = 38),7 (18.4) n (%)
same,TEAE Insomnia,[1]; Total (N = 38),4 (10.5) n (%)
same,TEAE Nausea,[1]; Total (N = 38),14 (36.8) n (%)
same,TEAE Pyrexia,[1]; Total (N = 38),7 (18.4) n (%)
same,TEAE Rash,[1]; Total (N = 38),4 (10.5) n (%)
same,TEAE Vomiting,[1]; Total (N = 38),13 (34.2) n (%)
same,deaths due to adverse events,[1]; all patients (N = 38),no deaths
same,frequency of abdominal pains,[1]; all patients (N = 38),21.1%
same,frequency of constipation,[1]; all patients (N = 38),21.1%
same,frequency of decreased appetite,[1]; all patients (N = 38),28.9%
same,frequency of fatigue or asthenia,[1]; all patients (N = 38),21.1%
same,frequency of nausea,[1]; all patients (N = 38),36.8%
same,frequency of vomiting,[1]; all patients (N = 38),34.2%
same,patients with at least one dose modification,[1]; all patients (N = 38),Nine
same,patients with drug-related Grade ≥ 3 AEs,[1]; all patients (N = 38),7.9%
same,patients with infusion interrupted because of a grade 2 infusion-related reaction,[1]; all patients (N = 38),one
same,patients with study-drug related Grade ≥ 3 TEAEs,[1]; all patients (N = 38),three
same,serious TEAEs considered study-drug related,[1]; all patients (N = 38),none
same,patients with Grade ≥ 3 TEAEs,"[1]; all patients (N = 38), 15 patients",39.5%
same,patients with study-drug related TEAEs,"[1]; all patients (N = 38), 22 patients",57.9%
same,patients with TEAEs,"[1]; all patients (N = 38), 36 patients",94.7%
same,patients with serious TEAEs,"[1]; all patients (N = 38), eight patients",21.1%
same,TEAE Abdominal pains,[1]; [3],1 (16.7) n (%)
same,TEAE Back pain,[1]; [3],3 (50.0) n (%)
same,TEAE Cancer pain,[1]; [3],0 (0) n (%)
same,TEAE Constipation,[1]; [3],2 (33.3) n (%)
same,TEAE Cough,[1]; [3],2 (33.3) n (%)
same,TEAE Decreased appetite,[1]; [3],1 (16.7) n (%)
same,TEAE Diarrhea,[1]; [3],0 (0) n (%)
same,"TEAE Edema, peripheral",[1]; [3],0 (0) n (%)
same,TEAE Fatigue/asthenia,[1]; [3],3 (50) n (%)
same,TEAE Injection site reaction/phlebitis,[1]; [3],1 (16.7) n (%)
same,TEAE Insomnia,[1]; [3],1 (16.7) n (%)
same,TEAE Nausea,[1]; [3],1 (16.7) n (%)
same,TEAE Pyrexia,[1]; [3],4 (66.7) n (%)
same,TEAE Rash,[1]; [3],2 (33.3) n (%)
same,TEAE Vomiting,[1]; [3],1 (16.7) n (%)
same,TEAE Abdominal pains,[1]; [4],0 (0) n (%)
same,TEAE Back pain,[1]; [4],0 (0) n (%)
same,TEAE Cancer pain,[1]; [4],0 (0) n (%)
same,TEAE Constipation,[1]; [4],0 (0) n (%)
same,TEAE Cough,[1]; [4],1 (25.0) n (%)
same,TEAE Decreased appetite,[1]; [4],1 (25.0) n (%)
same,TEAE Diarrhea,[1]; [4],0 (0) n (%)
same,"TEAE Edema, peripheral",[1]; [4],0 (0) n (%)
same,TEAE Fatigue/asthenia,[1]; [4],0 (0) n (%)
same,TEAE Injection site reaction/phlebitis,[1]; [4],0 (0) n (%)
same,TEAE Insomnia,[1]; [4],0 (0) n (%)
same,TEAE Nausea,[1]; [4],2 (50) n (%)
same,TEAE Pyrexia,[1]; [4],0 (0) n (%)
same,TEAE Rash,[1]; [4],1 (25.0) n (%)
same,TEAE Vomiting,[1]; [4],1 (25.0) n (%)
same,TEAE Abdominal pains,[1]; [5],1 (33.3) n (%)
same,TEAE Back pain,[1]; [5],0 (0) n (%)
same,TEAE Cancer pain,[1]; [5],1 (33.3) n (%)
same,TEAE Constipation,[1]; [5],1 (33.3) n (%)
same,TEAE Cough,[1]; [5],0 (0) n (%)
same,TEAE Decreased appetite,[1]; [5],1 (33.3) n (%)
same,TEAE Diarrhea,[1]; [5],0 (0) n (%)
same,"TEAE Edema, peripheral",[1]; [5],0 (0) n (%)
same,TEAE Fatigue/asthenia,[1]; [5],1 (33.3) n (%)
same,TEAE Injection site reaction/phlebitis,[1]; [5],0 (0) n (%)
same,TEAE Insomnia,[1]; [5],0 (0) n (%)
same,TEAE Nausea,[1]; [5],0 (0) n (%)
same,TEAE Pyrexia,[1]; [5],0 (0) n (%)
same,TEAE Rash,[1]; [5],0 (0) n (%)
same,TEAE Vomiting,[1]; [5],0 (0) n (%)
same,TEAE Abdominal pains,[1]; [6],0 (0) n (%)
same,TEAE Back pain,[1]; [6],0 (0) n (%)
same,TEAE Cancer pain,[1]; [6],2 (33.3) n (%)
same,TEAE Constipation,[1]; [6],1 (16.7) n (%)
same,TEAE Cough,[1]; [6],0 (0) n (%)
same,TEAE Decreased appetite,[1]; [6],0 (0) n (%)
same,TEAE Diarrhea,[1]; [6],0 (0) n (%)
same,"TEAE Edema, peripheral",[1]; [6],1 (16.7) n (%)
same,TEAE Fatigue/asthenia,[1]; [6],0 (0) n (%)
same,TEAE Injection site reaction/phlebitis,[1]; [6],1 (16.7) n (%)
same,TEAE Insomnia,[1]; [6],0 (0) n (%)
same,TEAE Nausea,[1]; [6],3 (50) n (%)
same,TEAE Pyrexia,[1]; [6],0 (0) n (%)
same,TEAE Rash,[1]; [6],0 (0) n (%)
same,TEAE Vomiting,[1]; [6],1 (16.7) n (%)
same,TEAE Back pain,[1]; [7],2 (10.5) n (%)
same,TEAE Cancer pain,[1]; [7],1 (5.3) n (%)
same,TEAE Constipation,[1]; [7],4 (21.1) n (%)
same,TEAE Cough,[1]; [7],1 (5.3) n (%)
same,TEAE Decreased appetite,[1]; [7],8 (42.1) n (%)
same,TEAE Diarrhea,[1]; [7],5 (26.3) n (%)
same,"TEAE Edema, peripheral",[1]; [7],3 (15.8) n (%)
same,TEAE Fatigue/asthenia,[1]; [7],4 (21.1) n (%)
same,TEAE Injection site reaction/phlebitis,[1]; [7],5 (26.3) n (%)
same,TEAE Insomnia,[1]; [7],3 (15.8) n (%)
same,TEAE Nausea,[1]; [7],8 (42.1) n (%)
same,TEAE Pyrexia,[1]; [7],3 (15.8) n (%)
same,TEAE Rash,[1]; [7],1 (5.3) n (%)
same,TEAE Vomiting,[1]; [7],10 (52.6) n (%)
same,TEAE Abdominal pains,[1]; [8],2 (14.3) n (%)
same,TEAE Back pain,[1]; [8],2 (14.3) n (%)
same,TEAE Cancer pain,[1]; [8],1 (7.1) n (%)
same,TEAE Constipation,[1]; [8],2 (14.3) n (%)
same,TEAE Cough,[1]; [8],1 (7.1) n (%)
same,TEAE Decreased appetite,[1]; [8],5 (35.7) n (%)
same,TEAE Diarrhea,[1]; [8],4 (28.6) n (%)
same,"TEAE Edema, peripheral",[1]; [8],2 (14.3) n (%)
same,TEAE Fatigue/asthenia,[1]; [8],2 (14.3) n (%)
same,TEAE Injection site reaction/phlebitis,[1]; [8],4 (28.6) n (%)
same,TEAE Insomnia,[1]; [8],2 (14.3) n (%)
same,TEAE Nausea,[1]; [8],4 (28.6) n (%)
same,TEAE Pyrexia,[1]; [8],1 (7.1) n (%)
same,TEAE Rash,[1]; [8],1 (7.1) n (%)
same,TEAE Vomiting,[1]; [8],6 (42.9) n (%)
same,cases of transaminase increase (grade ≥ 3) leading to dose modification,[1]; laboratory findings,Two
same,recommended dose (RD),"[2]; Asian patients, weekly i.v. infusion",570 mg/m^2
same,maximum tolerated dose (MTD),"[2]; dose-escalation cohort, 260–570 mg/m^2 weekly i.v.",not reached
same,dose-limiting toxicities (DLTs),"[2]; dose-escalation phase, listed as SAR",No dose-limiting toxicities; also recorded: No DLTs
same,patients with a DLT,"[2]; expansion cohort, 570 mg/m^2, of 19 patients, cycle 1, transaminase and creatinine increases",one
